Experimental data reported in ChEMBL document CHEMBL5725990, “Inhibitors of Bruton's tyrosine kinase” (2017).

Target: Tyrosine-protein kinase BTK (Homo sapiens, UniProt Q06187)
Test: Btk In Vitro Inhibitory Assay: Human Btk kinase (Genbank accession # NP_000052) was purified from insect cells as a full-length construct containing a N-terminal 6×-His tag. Btk kinase activity was determined using a radiometric filter binding assay. Measurements are performed in a low μL reaction volume 384-well assay plates. BTK enzyme (8 nM final in reaction), inhibitor (at requested doses), and 0.2 mg/mL peptide substrate (Poly-Glu-Tyr, 4:1 ratio) are incubated in a reaction buffer composed of 20 mM Hepes (pH 7.5), 10 mM MgCl2, 1 mM EGTA, 0.02% Brij35, 0.02 mg/ml BSA, 0.1 mM Na3VO4, 2 mM DTT, 1% DMSO for 15 min. followed by addition of 1 μM ATP to start the assay. Kinase reactions are carried out for 120 min. at room temperature. The reaction was stopped by spotting of reaction sample onto P81 cationic exchange paper (Whatman). Unbound phosphate was removed by extensive washing of filters in 0.75% Phosphoric acid.

Chain of Tyrosine-protein kinase BTK (Q06187 whole entry): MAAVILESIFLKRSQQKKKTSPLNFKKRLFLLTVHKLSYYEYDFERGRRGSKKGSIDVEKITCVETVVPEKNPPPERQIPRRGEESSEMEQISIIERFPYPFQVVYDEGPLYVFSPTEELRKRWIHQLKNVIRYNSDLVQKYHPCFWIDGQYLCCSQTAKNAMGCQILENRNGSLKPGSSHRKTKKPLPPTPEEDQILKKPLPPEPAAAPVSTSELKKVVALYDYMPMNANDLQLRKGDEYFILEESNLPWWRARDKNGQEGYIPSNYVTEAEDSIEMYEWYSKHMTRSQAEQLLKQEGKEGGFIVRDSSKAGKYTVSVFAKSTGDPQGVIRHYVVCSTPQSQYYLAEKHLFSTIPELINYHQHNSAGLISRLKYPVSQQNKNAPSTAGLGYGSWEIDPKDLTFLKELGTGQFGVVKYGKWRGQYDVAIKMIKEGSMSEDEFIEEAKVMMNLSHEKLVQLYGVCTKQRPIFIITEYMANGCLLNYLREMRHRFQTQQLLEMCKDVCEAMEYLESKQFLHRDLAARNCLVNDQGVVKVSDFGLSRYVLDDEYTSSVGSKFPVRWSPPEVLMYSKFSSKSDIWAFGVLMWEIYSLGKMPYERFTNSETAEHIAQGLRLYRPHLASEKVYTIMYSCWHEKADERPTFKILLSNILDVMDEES

SMILES	IC50 [nM]
NC(=O)c1nnc(N2CCC[C@@H](NC(=O)c3ccc4nccn4c3)C2)nc1Nc1ccc(C(=O)N2CCOCC2)cc1	< 10
NC(=O)c1ncc(N2CCC[C@@H](N3CCN(c4cccc(Cl)c4)C3=O)C2)nc1Nc1ccc(C2CCN(C3CCCC3)CC2)cc1	< 10
